Patent US20130123168A1, “HUMANIN AND HUMANIN-ANALOGUES FOR THE MANAGEMENT OF ATHEROSCLEROSIS” (The Regents of the University of California, priority 2011, published 2013)
Entries after “also recorded” stand apart in the source; their conditions may differ.

Legend:
[1] = tested on: atherosclerotic plaques in proximal aorta; assay: Morphometric analysis of plaque size in proximal aorta cross sections; format: in vivo, mice; conditions: IP 0.4 mg/kg/day, 16 weeks
NIT cells = conditions: cited from earlier work
[2] = tested on: atherosclerotic plaque in the aortic arch; assay: TUNEL staining of apoptotic cells in plaques of the aortic arch; format: in vivo; conditions: Group 4: ApoE-deficient mice, high cholesterol diet
Method: The effect of HNGF6A on mice was studied in 4 different animal groups (n=12 per group); Group 1: C57BL/6 feed normal diet+intraperitoneal (IP) saline, Group 2: C57BL/6 feed normal diet+IP HNGF6A, Group 3: ApoE-deficient feed high cholesterol diet+IP saline, and Group 4: ApoE-deficient feed high cholesterol diet+IP HNGF6A (Group 4). Experiment was conducted over the course of 16 weeks. Female C57BL/6 mice and Apo E-deficient mice were obtained at the age of 4 weeks from Jackson Laboratory Animals had free access to water, were maintained at 24° C., and kept at a 12 hr light/dark cycle. Depending on the study group, the mice were treated with a normal diet or high cholesterol diet (HC, 0.15% cholesterol and 42% milk fat by weight, TD88137 or “Western diet”; Harlan Teklad) and received intraperitoneal injection (IP) of saline or HNGF6A (glycine variant of HN, 0.4 mg/kg/day, Peptide International, Louisville, Ky.) for 16 weeks. […] Blood samples were collected by cardiac puncture. Terminal deoxynucleotidyl transferase dUTP nick end labeling (TUNEL) was performed using the in situ Apoptosis Detection Kit (S7100-KIT; Chemicon). The procedure was performed following the manufacturers' protocol. […] The number of positive cells in atherosclerotic plaque was counted using x400 magnification. […] Data was expressed as mean±SEM. […]

[3] = tested on: human aortic endothelial cells (HAECs); assay: TUNEL assay of Ox-LDL induced apoptosis in HAEC; format: cell-based; conditions: pre-incubated overnight with 0.1 μM, then 100 μg/ml Ox-LDL for 6 hours
Method: To accomplish this, a TUNEL assay was applied to measure the levels of apoptosis in HAECs treated with or without HN prior to exposure with Ox-LDL (FIG. 2). HAECs were plated on glass cover slips and incubated overnight with or without added HN (0.1 μM). The cells were then exposed to Ox-LDL (100 μg/ml; Biomedical Technologies Inc.) for 6 hours at 37° C. in the absence of HN. Apoptotic cells were quantified by TUNEL assay using the In Situ Death Detection Kit® (Roche Applied Science), mounted in SlowFade containing DAPI (Invitrogen) and observed by flourescent microscope. Apoptotic cells were defined based in morphological changes in the nuclei and the fluorescent intensity after TUNEL staining. The apoptotic index (AI)=(number of apoptotic cells)/(total number of cells)

[4] = tested on: human aortic endothelial cells (HAECs); assay: Ox-LDL induced ROS production, dihydroethidium (DHE) fluorescence; format: cell-based
Method: Prior studies have reported that treatment of vascular endothelial cells with oxidized low density lipoprotein (LDL) stimulates reactive oxygen species (ROS) formation. To test whether humanin (HN) affects Ox-LDL induced ROS production in endothelial cells, the fluorescent probe dihydroethidium was utilized in order to detect superoxide in living cells. DHE fluorescence was measured in human aortic endothelial cells (HAECs) preincubated with HN and subsequently exposed to Ox-LDL. Intracellular ROS production was monitored by following the conversion of the oxidant sensitive dye dihydroethidine to fluorescent ethidium.
To accomplish this, as described in Bachar et al. (2010) Cardiovasc. Res. 88(2):360-6 (incorporated by reference in its entirety). […] Fluorescent images were then taken with an inverted fluorescent microscope (Olympus IX70) at 15× magnification using appropriate filters fro ethidium fluorescence. Ten to twelve non-overlapping images in each culture dish were acquired and quantified by image analysis using Metamorph software (Molecular Devices). Only those cells whose fluorescence exceeded twice the basal level of fluorescence of non-treated cells were used for quantification of DHE fluorescence. Values are expressed as average relative fluorescence units for n≧100 cells per experimental condition in 2 independent experiments. […]

[5] = tested on: human aortic endothelial cells (HAECs); assay: Cellular ceramide levels by HPLC/MS/MS after Ox-LDL; format: cell-based; conditions: 0.1 μM overnight, then Ox-LDL 100 μg/ml for 6 hours
Method: HAECs were plated on glass cover slips and incubated overnight with or without added HN (0.1 μM). The cells were then exposed to Ox-LDL (100 μg/ml; Biomedical Technologies Inc.) for 6 hours. Cells were then scraped into PBS, pelleted and frozen in liquid nitrogen. These samples were sent to MUSC-lipidomics core (Lipidomics Analytical Unit) for processing to detect and quantify individual ceramide species by HPLC/MS/MS.

Substance: HNGF6A: HN analogue, SEQ ID NO:16 MAPRGASCLLLLTGEIDLPVKRRA (listed as Homo sapiens)
- presence of plaque in aorta ([1]; Group 2: C57BL/6 mice, normal diet, 0.4 mg/kg/day): Plaques were not visible; also recorded: no plaque was apparent
- plaque size ([1]; Group 4: ApoE-deficient mice, high cholesterol diet): 0.01±0.003 mm^2
- potency compared to humanin in promoting survival and activating STAT-3 and ERK (NIT cells): even greater potency
- numbers of apoptotic cells in plaques compared to Group 3 (in words) ([2]; IP): significantly decreased
- number of apoptotic cells in plaques in the aortic arch ([2]; IP 0.4 mg/kg/day, 16 weeks, mean±SEM): 84±17 cells/mm^2

Substance: humanin (MAPRGFSCLLLLTSEIDLPVKRRA; listed as Homo sapiens) [HN]
- relative decrease in apoptosis compared to cells without pretreatment [3]: more than 50%
- decrease in ROS production ([4]; HN pretreatment overnight prior to Ox-LDL (100 μg/ml, 30 min) exposure): approximately 50%
- decrease in Ox-LDL induced ROS formation, dose dependence ([4]; HN titration): dose-dependent manner
- total cellular amount of ceramides, including C16-ceramide [5]: decrease

Substance: Z-FIN: SEQ ID NO:18 MAKRGLNCLPHQVSEIDLSVQKRI (listed as Homo sapiens)
- potency compared to humanin in promoting survival and activating STAT-3 and ERK (NIT cells): two-fold greater potency than humanin

Substance: F6AK21A-HNG: SEQ ID NO:17 MAPRGASCLLLLTGEIDLPVARRA (listed as Homo sapiens)
- potency compared to humanin in promoting survival and activating STAT-3 and ERK (NIT cells): even greater potency
